Test [1] has as its system A2780 cells. As to the kind of experiment: In-vitro cell proliferation assay (SRB), A2780 cells. The test is classed as cell-based. The settings on record: Homo sapiens, A2780, 72 h, A2780 cells, 72 hours, read-out: A2780 IC50. Summed up: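 SRB read-out: 6% TCA fix 1 h at 4° C., stain, Tris solubilize, A570. Media-only background subtracted; % inhibition from two compound concentrations.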

Test [2] concerns the target T1, NAMPT (Homo sapiens, UniProt P43490).
T1 construct: His tag; host or cells: E. coli
As to the kind of experiment: Biochemical inhibition assay: NAMPT enzymatic reaction, NMN quantified by mass spectrometry. The following applies: read-out: Biochem IC50. Summed up: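 Inhibition of E. coli-expressed His-tagged human NAMPT, measured as NMN formation by mass spectrometry after a 30 min room-temperature reaction containing 1 μM NAM, 100 μM PRPP and 2.5 mM ATP.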

Each structure is given as a SMILES string. Where two headings read alike, the source gives them in different places.

What is called IC50 is the concentration that inhibits the measured activity by half.

T1 sequence (P43490 whole entry): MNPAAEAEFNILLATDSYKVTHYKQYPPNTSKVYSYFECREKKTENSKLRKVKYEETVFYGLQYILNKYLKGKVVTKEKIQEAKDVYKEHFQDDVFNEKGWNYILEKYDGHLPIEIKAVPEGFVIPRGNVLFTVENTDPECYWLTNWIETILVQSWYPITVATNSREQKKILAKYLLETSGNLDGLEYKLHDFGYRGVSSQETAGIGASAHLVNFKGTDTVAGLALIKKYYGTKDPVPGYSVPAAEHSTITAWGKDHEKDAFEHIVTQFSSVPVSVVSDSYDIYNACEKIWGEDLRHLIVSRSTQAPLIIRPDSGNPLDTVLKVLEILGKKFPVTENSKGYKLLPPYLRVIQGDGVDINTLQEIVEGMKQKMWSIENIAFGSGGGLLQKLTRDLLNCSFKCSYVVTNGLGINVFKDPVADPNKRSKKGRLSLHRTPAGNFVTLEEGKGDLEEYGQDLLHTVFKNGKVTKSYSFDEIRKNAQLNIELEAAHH

On to `CN(C)C(=O)c1ccccc1S(=O)(=O)c1ccc(CNC(=O)c2ccc3nccn3c2)cc1` [N-[(4-{[2-(dimethylcarbamoyl)benzene]sulfonyl}phenyl)methyl]imidazo[1,2-a]pyridine-6-carboxamide], for which the IC50 is 100 to 1000 nM in test [1] (SRB) and over 167 nM in test [2] (NAMPT enzymatic assay).

For `Cc1ccc(S(=O)(=O)c2ccc(CNC(=O)c3cnc4[nH]ncc4c3)cc2)cc1F`, the IC50 in test [1] (SRB) amounted to 5.6 nM; in test [2] (NAMPT enzymatic reaction), 11.7 nM.

With `Cn1ncc2cc(S(=O)(=O)c3ccc(CNC(=O)c4cc5ccncc5o4)cc3)ccc21` [N-{[4-(1-methyl-1H-indazole-5-sulfonyl)phenyl]methyl}furo[2,3-c]pyridine-2-carboxamide], the figures for the IC50 in test [1] (SRB) and in test [2] (NAMPT enzymatic assay) were 3.5 nM and 3.3 nM, respectively.

Regarding `O=C(NCc1ccc(NS(=O)(=O)c2ccccc2)cc1)c1cc2cnccc2[nH]1` [N-[(4-benzenesulfonamidophenyl)methyl]-1H-pyrrolo[3,2-c]pyridine-2-carboxamide], the IC50 in test [1] (SRB assay) was 5 nM; in test [2] (NAMPT enzymatic reaction), 11 nM.

With `O=C(NCc1ccc(S(=O)(=O)c2cc(F)cc(OCC(F)(F)F)c2)cc1)c1cc2ccncc2o1` [N-[(4-{[3-fluoro-5-(2,2,2-trifluoroethoxy)benzene]sulfonyl}phenyl)methyl]furo[2,3-c]pyridine-2-carboxamide], the IC50 in test [1] (SRB) stood at 6.1 nM; in test [2] (NAMPT enzymatic assay), 7.4 nM.

Consider `O=C(NCc1ccc(S(=O)(=O)c2ccc3ncccc3c2)cc1)c1cnc2[nH]ncc2c1` [N-{[4-(quinoline-6-sulfonyl)phenyl]methyl}-1H-pyrazolo[3,4-b]pyridine-5-carboxamide], for which the IC50 in test [1] (SRB) turned out to be 4.1 nM; in test [2] (NAMPT enzymatic assay) it was 10.1 nM.

`Cc1nc(C)c(S(=O)(=O)c2ccc(CNC(=O)c3cnc4[nH]ncc4c3)cc2)s1` [N-{[4-(dimethyl-1,3-thiazole-5-sulfonyl)phenyl]methyl}-1H-pyrazolo[3,4-b]pyridine-5-carboxamide]: the IC50 in test [1] (SRB) was 16.4 nM; in test [2] (NAMPT enzymatic assay), 38.6 nM.

As for `O=C(NCc1ccc(S(=O)(=O)c2cc(F)cc(Cl)c2)cc1)c1cnc2nccn2c1`, the IC50 was 2.9 nM in test [1] (SRB) and 2.4 nM in test [2] (NAMPT enzymatic reaction).

`CCCCOc1ccc(S(=O)(=O)c2ccc(CNC(=O)c3cc4ccncc4s3)cc2)cc1F` [N-({4-[(4-butoxy-3-fluorobenzene)sulfonyl]phenyl}methyl)thieno[2,3-c]pyridine-2-carboxamide]: the IC50 in test [1] (SRB) was determined as 12.6 nM; in test [2] (NAMPT enzymatic reaction) it was 4.7 nM.

With `Cn1ncc2ccc(S(=O)(=O)c3ccc(CNC(=O)c4cnc5nccn5c4)cc3)cc21` [N-{[4-(1-methyl-1H-indazole-6-sulfonyl)phenyl]methyl}imidazo[1,2-a]pyrimidine-6-carboxamide], the IC50 in test [1] (SRB) turned out to be 5 nM; in test [2] (NAMPT enzymatic assay), 1.6 nM.

For the compound `Cc1cc(C)n(-c2cccc(S(=O)(=O)c3ccc(CNC(=O)c4cc5cc(O)ccc5[nH]4)cc3)c2)n1`, the IC50 in test [1] (SRB) and in test [2] (NAMPT enzymatic assay) was 100 to 1000 nM each time.

Consider `CN(C)c1ccc(S(=O)(=O)c2ccc(CNC(=O)c3ccc4nccn4c3)cc2)cn1` [N-({4-[6-(dimethylamino)pyridine-3-sulfonyl]phenyl}methyl)imidazo[1,2-a]pyridine-6-carboxamide], for which the IC50 in test [1] (SRB) was 2.7 nM; in test [2] (NAMPT enzymatic assay) it was 44.9 nM.

In the case of `CC(C)Oc1cccc(S(=O)(=O)c2ccc(CNC(=O)c3cc4ccncc4s3)cc2)c1F`, the values for the IC50 in test [1] (SRB) and in test [2] (NAMPT enzymatic assay) were 6.6 nM and 4.7 nM, respectively.

On to `Cc1cncc(S(=O)(=O)c2ccc(CNC(=O)c3cc4ccncc4s3)cc2)c1` [N-{[4-(5-methylpyridine-3-sulfonyl)phenyl]methyl}thieno[2,3-c]pyridine-2-carboxamide], for which the IC50 came out at 2.5 nM in test [1] (SRB) and 6 nM in test [2] (NAMPT enzymatic assay).

Regarding `Cc1cccc(S(=O)(=O)c2ccc(CNC(=O)c3cc4ccncc4s3)cc2)c1C` [N-({4-[(2,3-dimethylbenzene)sulfonyl]phenyl}methyl)thieno[2,3-c]pyridine-2-carboxamide], the IC50 in test [1] (SRB) turned out to be 4.4 nM; in test [2] (NAMPT enzymatic assay), 11 nM.

Turning to `COc1ccc(F)cc1S(=O)(=O)c1ccc(CNC(=O)c2cnc3[nH]ncc3c2)cc1`, the 50% inhibitory concentration (IC50) is 15.1 nM in test [1] (SRB) and 39 nM in test [2] (NAMPT enzymatic reaction).
